Data taken from paper PMC7758422, “Design, Synthesis, and Antitumor Activities Study of Stapled A4K14-Citropin 1.1 Peptides” (Frontiers in Chemistry, 2020).

Experiment: on-resin all-hydrocarbon stapling by ring-closing metathesis of S5/S5 (i,i+4) or R8/S5 (i,i+7), Grubbs first-generation catalyst (0.45 mmol per 0.15 mmol resin, 3 equiv), then TFA/TIPS/phenol/H2O cleavage and RP-HPLC
Settings: the molecule shown is the open-chain precursor, 25.0 °C, 4.0 h, 36 steps
[1] = 21-membered ring, 1,2-dichloroethane

C=CCCC[C@](C)(NC(=O)[C@H](C)NC(=O)[C@H](Cc1ccccc1)NC(=O)[C@H](CC(C)C)NC(=O)CNC(C)=O)C(=O)N[C@H](C(=O)N[C@@H](CCCCNC(=O)OC(C)(C)C)C(=O)N[C@@H](CCCCNC(=O)OC(C)(C)C)C(=O)N[C@@](C)(CCCC=C)C(=O)N[C@@H](C)C(=O)N[C@@H](COC(C)(C)C)C(=O)N[C@H](C(=O)N[C@H](C(=O)N[C@@H](CCCCNC(=O)OC(C)(C)C)C(=O)NCC(=O)N[C@@H](CC(C)C)C(N)=O)[C@@H](C)CC)C(C)C)[C@@H](C)CC
ring closure, overall yield [1]: 62 % yield

C=CCCCCCC[C@@](C)(NC(=O)[C@@H](NC(=O)[C@H](C)NC(=O)[C@H](Cc1ccccc1)NC(=O)[C@H](CC(C)C)NC(=O)CNC(C)=O)C(C)C)C(=O)N[C@@H](CCCCNC(=O)OC(C)(C)C)C(=O)N[C@@H](CCCCNC(=O)OC(C)(C)C)C(=O)N[C@H](C(=O)N[C@@H](C)C(=O)N[C@@H](COC(C)(C)C)C(=O)N[C@H](C(=O)N[C@@](C)(CCCC=C)C(=O)N[C@@H](CCCCNC(=O)OC(C)(C)C)C(=O)NCC(=O)N[C@@H](CC(C)C)C(N)=O)C(C)C)C(C)C
ring closure, overall yield (33-membered ring, 1,2-dichloroethane): 62 % yield

C=CCCC[C@](C)(NC(=O)[C@H](C)NC(=O)[C@@H](NC(=O)[C@H](CCCCNC(=O)OC(C)(C)C)NC(=O)[C@H](CCCCNC(=O)OC(C)(C)C)NC(=O)[C@@H](NC(=O)[C@@H](NC(=O)[C@H](C)NC(=O)[C@H](Cc1ccccc1)NC(=O)[C@H](CC(C)C)NC(=O)CNC(C)=O)C(C)C)[C@@H](C)CC)C(C)C)C(=O)N[C@H](C(=O)N[C@H](C(=O)N[C@@H](CCCCNC(=O)OC(C)(C)C)C(=O)N[C@@](C)(CCCC=C)C(=O)N[C@@H](CC(C)C)C(N)=O)[C@@H](C)CC)C(C)C
ring closure, overall yield [1]: 62 % yield
